How the values were obtained:
urinary Trp metabolites = assay: in vivo trial: urinary tryptophan and metabolites in bladder cancer patients (HPLC in reverse phase)
Experimental: 24 bladder cancer patients were randomized into two groups to receive MESNA-Arginine (per os, 800 mg/daily) or placebo. In both groups 24 hours before and after administration of the drug (MESNA-Arginine, or Placebo), urinary Kynurenine (Ky), Xanthurenic acid (XA), 5-hydroxy-indoleacetic acid (5-HIAA), AA, Trp and 3-OH-AA were determined by HPLC in reverse phase (Rocchini P., Bizzari M., Pompei M; Ciani D., Panicucci M. and Gallo S. Urinary determination of Tryptophan and related metabolites through HPLC in reverse-phase. Rass. Chimi. 1:15-18, 1984.)

solubility in water = assay type: physicochemical
pH in water solution = assay type: physicochemical; conditions: 10% aqueous solution
[1] = background statement; cited from earlier work
[2] = per os, 800 mg/daily, after 24 hours, P-0.001
[3] = per os, 800 mg/daily, after 24 hours, listed as MESNA-Arginine
[4] = per os, 800 mg/daily, after 24 hours, listed as MESNA-arginine

Row | SMILES | cerebral uptake of Trp (urinary Trp metabolites; inferred from rate excretion of 5-HIAA) | urinary tryptophan levels (urinary Trp metabolites; per os, 800 mg/daily, after 24 hours) | reduction of urinary 3-OH-anthranilic acid (urinary Trp metabolites; [2]) | reduction of urinary anthranilic acid (urinary Trp metabolites; [2]) | urinary 5-HIAA (urinary Trp metabolites; [3]) | urinary kynurenine (Ky) (urinary Trp metabolites; [3]) | urinary xanthurenic acid (XA) (urinary Trp metabolites; [3]) | urinary 5-HIAA (urinary Trp metabolites; [4]) | urinary kynurenine (Ky) (urinary Trp metabolites; [4]) | urinary xanthurenic acid (XA) (urinary Trp metabolites; [4]) | solubility in water (solubility in water) | pH in 10% water solution (pH in water solution) | instability of the compound in the free state [1]
1 | O=S(=O)(O)CCS [Example 2, arginine mercaptoethansulphonate] | no variations | slight reduction | -71% | -61% | no variation | no variation | no variation | substantial invariance | unchanged | unchanged | perfect | 6.7 | 
2 | O=S(=O)(O)CCS [MESNA, mercaptoethansulphonic acid] |  |  |  |  |  |  |  |  |  |  |  |  | high instability
